In patent US9993457B2, “Method of improving visual processing, visual acuity, or both by administering compositions comprising RRR-alpha-tocopherol and carotenoid to infants” (ABBOTT LABORATORIES, priority 2014, dated 2018):
Like-named read-outs stand apart in the source and are kept apart here.

What was measured:
[1] = in vivo
Excerpt: In Example 1, the brain tissues of infants were sampled to measure the concentration of total alpha-tocopherol and RRR-alpha-tocopherol.
Subjects were infants (n=25) who died during the first year of life from either SIDS or other conditions. Brain tissues (occipital cortex, OC {n=17}; frontal cortex, FC {n−17}; and hippocampus, HPC {n=19}) from the NICHD Brain and Tissue Bank were processed using standard lipid extraction procedures and analyzed using chiral reverse phase HPLC. Data are presented as concentrations (μg/g tissue) of total alpha-tocopherol or RRR-alpha-tocopherol in the brain tissue.
The mean concentration in each region is denoted by a horizontal bar. […] In addition, total alpha-tocopherol was analyzed by age (in days) in the frontal cortex (graph B), hippocampus (graph C), and occipital cortex (graph D). […] RRR-alpha-tocopherol concentrations were also measured in the frontal cortex (graph E), hippocampus (graph F), and occipital cortex (graph G) of human infant brain tissues and reported as a function of age.

[2] = cited from earlier work

| Compound | correlation between age and mean concentration [1] | stereoisomer predominance compared to all non-RRR-alpha-tocopherol stereoisomers [1] | biological activity relative to all-rac-alpha-tocopherol ([2]; accepted nutritional guidelines) [times] | biological activity relative to all-rac-alpha-tocopherol ([2]; recent studies) | change of total alpha-tocopherol concentration with age [1] |
| --- | --- | --- | --- | --- | --- |
| Cc1c(C)c2c(c(C)c1O)CC[C@@](C)(CCC[C@H](C)CCC[C@H](C)CCCC(C)C)O2 [RRR-alpha-tocopherol] | strong correlation | predominant stereoisomer | 1.36 | about 2 times |  |
| Cc1c(C)c2c(c(C)c1O)CC[C@@](C)(CCC[C@H](C)CCC[C@H](C)CCCC(C)C)O2 [alpha-tocopherol] |  |  |  |  | increased with age |
